In general, EC50 refers to the concentration giving half of the maximal effect.

We go through three compounds from US7476649B2, “Antiproliferative and antiviral proteins and peptides” (priority 1998, dated 2009).

Converted amounts (≈) assume the structure as drawn. Like-named read-outs stand apart in the source and are kept apart here.

Data set [1] is described as follows: in vitro. Particulars: African green monkey.
Data set [2] concerns San Angelo (SAV). It is filed as cell-based, San Angelo virus.
Data set [3] in a line: in vitro. Particulars: African green monkey. This is another data set of the same source.
In data set [4] the test system is San Angelo (SAV). The experiment in a line: microbe, parasite or virus in culture. It is filed as cell-based, San Angelo virus.
The nature of data set [5]: in vitro. Particulars: African green monkey. The source holds these as a separate data set.
The nature of data set [6]: in vitro. Particulars: African green monkey. The source holds these as a separate data set.
Data set [7] has as its system type 1 herpes (HSV-1), strain McKrae. It is filed as cell-based, Herpes Simplex Type I.
Data set [8] shares this test system. It is filed as cell-based, Herpes Simplex Type I. This is another data set of the same source.
The subject of data set [9] is human embryonic lung cell line MRC-5.
Data set [10] relates to African green monkey cells (CV-1).
For data set [11] the test system is unchanged. The source holds these as a separate data set.

Regarding `NC(=O)c1ncn([C@@H]2O[C@H](CO)[C@@H](O)[C@H]2O)n1` [Ribavirin, ribavirin], the CC50 in the data set “in vitro [1]”, in the data set “in vitro [3]”, in the data set “in vitro [5]” and in “in vitro [6]” was above 100 µg/mL throughout. Moreover, the “COMMENT (activity)” value in the data set on San Angelo (SAV) [2] and in the data set with San Angelo (SAV) [4] was “Very good activity” in each case. The 50% effective concentration (EC50) with San Angelo (SAV) [4] (San Angelo virus, Vero) turned out to be 30 µg/mL (≈ 123 µM).
Take `Nc1nc2c(ncn2COCCO)c(=O)[nH]1` [Acyclovir, acyclovir]: the “COMMENT (activity)” value in [7] and in [8] was “Excellent activity” throughout. Also, the CC50 in data set [9] is above 100 µg/mL.
As to `Nc1ccn(C[C@@H](CO)OCP(=O)(O)O)c(=O)n1` [HPMPC, cidofovir], the CC50 in [10] and in data set [11] was above 100 µg/mL throughout.
